Read-outs that look alike come from different tables or passages of the source.
What was measured:
ePL tagged IDO1 = molecular target: T1, ePL tagged IDO1 (Homo sapiens, UniProt P14902); experiment: CETSA (Cellular Thermal Shifting assay) in Hela cells; assay type: binding; conditions: BacMam ePL tagged IDO1, 3 hours at 37° C., heated at 53° C. for 3 min
T1 construct: expressed in transfected cells; host or cells: HeLa cells transduced with BacMam virus
Description: Cellular Thermal Shifting assays were used to directly monitor the ligand binding to target proteins in cells. Hela cells were transduced with BacMam virus expressing ePL tagged IDO1 overnight. The cells were then plated over the compounds for 3 hours at 37° C. in cell culture medium containing 1% FBS. The plates were then sealed and heated at 53° C. for 3 min. InCell Hunter reagents were added and luminescence was read in 90 min.

[1] = tested on: human peripheral blood mononuclear cells (PBMC); experiment: PBMC cytotoxicity assay (CellTiter-Glo); assay type: cell-based; conditions: 2 days, pCC50
Outline: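 % cytotoxicity was taken from CellTiter-Glo luminescence, using wells without cells and stimulated DMSO wells as references, and fitted by four-parameter curve to give XC50. Cells were human PBMC at 50,000 per well, activated with 100 ng/ml IFN-γ plus 50 ng/ml LPS. Incubation with 11-point, 3-fold dilution series ran for 2 days at 37 °C.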

[2] = molecular target: T2, indoleamine 2, 3-dioxygenase (IDO1) (Homo sapiens, UniProt P14902); experiment: IDO1 PBMC RapidFire MS assay (kynurenine detection by mass spectrometry); assay type: cell-based; set-up: to induce the expression of indoleamine 2, 3-dioxygenase (IDO1); host or cells: human PBMC stimulated with IFN-gamma and LPS; conditions: human PBMC stimulated with IFN-γ and LPS, 2 days; for IC50: pIC50, read-out: PBMC PXC50 (converted)
T2 sequence (P14902 whole entry): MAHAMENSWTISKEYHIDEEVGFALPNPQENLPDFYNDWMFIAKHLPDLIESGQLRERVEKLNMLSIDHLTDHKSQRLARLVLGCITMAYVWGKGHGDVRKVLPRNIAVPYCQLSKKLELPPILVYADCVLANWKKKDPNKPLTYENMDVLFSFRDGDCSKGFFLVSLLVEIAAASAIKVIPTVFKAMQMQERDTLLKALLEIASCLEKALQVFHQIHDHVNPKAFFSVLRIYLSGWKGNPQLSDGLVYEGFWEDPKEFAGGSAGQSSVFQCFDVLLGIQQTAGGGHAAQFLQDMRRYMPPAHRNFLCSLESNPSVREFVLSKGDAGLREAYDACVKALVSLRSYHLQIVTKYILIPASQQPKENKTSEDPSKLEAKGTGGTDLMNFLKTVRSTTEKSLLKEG
Outline: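 Kynurenine output, read by RapidFire mass spectrometry as ratio to an internal standard, was measured after 2-day compound exposure (11-point, 3-fold dilutions) of human PBMCs induced with 100 ng/ml IFN-γ and 50 ng/ml LPS. Cell viability tracked alongside via ATP luminescence; XC50 from curve fitting.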

[3] = molecular target: T2, indoleamine 2, 3-dioxygenase (IDO1); experiment: IDO1 HeLa RapidFire MS assay (kynurenine detection by mass spectrometry); assay type: cell-based; set-up: to induce the expression of indoleamine 2, 3-dioxygenase (IDO1); conditions: HeLa cells, pIC50, read-out: IDO1_HELA_PXC50 (converted)
Outline: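 Compound potency reported as pIC50 from kynurenine/internal-standard ratio (RapidFire MS) in supernatant of IFN-γ-induced (10 nM) HeLa cells, 5,000 per well, after 2 days' treatment with 11-point dilutions. Cytotoxicity in the same format by luminescent ATP detection, reported as pCC50.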

[4] = tested on: human epithelial HeLa cells; experiment: HeLa cytotoxicity assay (CellTiter-Glo); assay type: cell-based; conditions: pCC50
Outline: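 Read-out is CellTiter-Glo luminescence after 2 days at 37 °C, on IFN-γ-stimulated (10 nM) HeLa cells seeded at 5,000/well with compounds in 11-point 3-fold dose series. pCC50 from four-parameter curve fit; wells without cells set 100% cytotoxicity, stimulated cells with DMSO set 0%.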

T1 sequence (P14902 whole entry): as above

SMILES | EC50 (ePL tagged IDO1; read-out: pXC50_1 (converted)) | EC50 (ePL tagged IDO1; read-out: pXC50_2 (converted)) | PBMC TOX PXC50 [1] | IC50 [2] | IC50 [3] | HELA_IDO1_TOX_PXC50 [4] | pXC50_1 (ePL tagged IDO1) | pXC50_2 (ePL tagged IDO1) | PBMC PXC50 ([2]; pIC50)
CC(C)CC(=O)N1CCC(N(CC(C)C)c2ccc([C@H](C)CC(=O)O)cc2Nc2nc(C(F)(F)F)ns2)CC1 [Example 67, (R)-3-(4-(isobutyl(1-(3-methylbutanoyl)piperidin-4-yl)amino)-3-((3-(trifluoromethyl)-1,2,4-thiadiazol-5-yl)amino)phenyl)butanoic Acid] | 72.4 nM | 50.1 nM | <5 | 2 nM | – | – | – | – | –
CC(C)CN(c1ccc([C@H](C)CC(=O)O)cc1Nc1ccc(Cl)nc1)C1CCOCC1 [Example 6, (R)-3-(3-((6-chloropyridin-3-yl)amino)-4-(isobutyl(tetrahydro-2H-pyran-4-yl)amino)phenyl)butanoic Acid] | 13.8 nM | 20.9 nM | <5 | 0.631 nM | – | – | – | – | –
CC(C)CN(c1ccc(-c2ccccc2C(=O)NCCCCCN)cc1Nc1nc(C(F)(F)F)ns1)C1CCCCC1 [example 283, N-(5-aminopentyl)-4′-[cyclohexyl(2-methylpropyl)amino]-3′-{[3-(trifluoromethyl)-1,2,4-thiadiazol-5-yl]amino}-[1,1′-biphenyl]-2-carboxamide] | > 100000 nM | – | – | – | 5010 nM | <5 | – | – | –
CC(C)CN(CC(C)C)c1ccc(C2(CC(=O)O)CC2)cc1Nc1nc(C(F)(F)F)ns1 [Example 110, 2-(1-(4-(diisobutylamino)-3-((3-(trifluoromethyl)-1,2,4-thiadiazol-5-yl)amino)phenyl)cyclopropyl)acetic Acid] | – | – | 5.2 | – | – | – | 6.89 | 6.86 | 8.5
CO[C@H]1CC[C@@H](N(CC(C)C)c2ccc([C@H](C)CC(=O)O)cc2Nc2nc(C(F)(F)F)n[nH]2)CC1 [Example 51] | 1.7 nM | – | <5 | 1.58 nM | – | – | – | – | –
CC(C)CN(c1ccc([C@H](C)CC(=O)O)cc1Nc1ccc(Cl)nn1)C1CCOCC1 [Example 11, (R)-3-(3-((6-chloropyridazin-3-yl)amino)-4-(isobutyl(tetrahydro-2H-pyran-4-yl)amino)phenyl)butanoic Acid] | 112 nM | 191 nM | <5 | 1 nM | – | – | – | – | –
CC(C)CN(c1ccc([C@H](C)CC(=O)O)cc1Nc1ccc(C#N)cn1)C1CCOCC1 [Example 16, (R)-3-(3-((5-cyanopyridin-2-yl)amino)-4-(isobutyl(tetrahydro-2H-pyran-4-yl)amino)phenyl)butanoic Acid] | 257 nM | 316 nM | <5 | 1.58 nM | – | – | – | – | –
CC(C)CN(c1ccc([C@H](C)CC(=O)O)cc1Nc1ccc(C#N)cn1)C1CCCCC1 [Example 73, (R)-3-(3-((5-cyanopyridin-2-yl)amino)-4-(cyclohexyl(isobutyl)amino)phenyl)butanoic Acid] | – | – | <5 | 0.794 nM | 3.98 nM | <5 | – | – | –
CC(C)CN(c1ccc([C@H](C)Cc2nnn[nH]2)cc1Nc1nc(Cl)ns1)C1CCCCC1 [Example 102, (R)-4-(1-(1H-tetrazol-5-yl)propan-2-yl)-N^2-(3-chloro-1,2,4-thiadiazol-5-yl)-N^1-cyclohexyl-N^1-isobutylbenzene-1,2-diamine] | – | – | <5 | 5.01 nM | 7.94 nM | <5 | – | – | –
CC(C)CN(c1ccc([C@H](C)CC(=O)O)cc1NC1CCC1)C1CCCCC1 [example 181, (3R)-3-[3-(cyclobutylamino)-4-[cyclohexyl(2-methylpropyl)amino]phenyl]butanoic acid] | – | – | <5 | 158 nM | 316 nM | <5 | – | – | –
CO[C@H]1CC[C@H](N(CC(C)C)c2ccc(-c3ccccc3C(=O)O)cc2Nc2nc(C(F)(F)F)ns2)CC1 [Example 111, 4′-(isobutyl((1r,4r)-4-methoxycyclohexyl)amino)-3′-((3-(trifluoromethyl)-1,2,4-thiadiazol-5-yl)amino)-[1,1′-biphenyl]-2-carboxylic Acid] | – | – | <5 | 3.98 nM | 10 nM | <5 | – | – | –
CC(C)CN(c1ccc(C(C)(C)CC(=O)O)cc1Nc1nc(Cl)ns1)C1CCOCC1 [Example 5, 3-(3-((3-chloro-1,2,4-thiadiazol-5-yl)amino)-4-(isobutyl(tetrahydro-2H-pyran-4-yl)amino)phenyl)-3-methylbutanoic Acid] | – | – | <5 | 5.01 nM | 25.1 nM | <5 | – | – | –
CC(C)CN(c1ccc([C@H](C)CC(=O)O)cc1Nc1nnc(C2CC2)[nH]1)C1CCOCC1 [example 210, (3R)-3-{3-[(5-cyclopropyl-4H-1,2,4-triazol-3-yl)amino]-4-[(2-methylpropyl)(oxan-4-yl)amino]phenyl}butanoic acid] | – | – | <5 | 39.8 nM | 50.1 nM | <5 | – | – | –
CC(C)CN(c1ccc(C(C)OCC(=O)O)cc1Nc1ccc(C#N)cn1)C1CCCCC1 (centres unmarked) [Example 113, 2-(1-(3-((5-cyanopyridin-2-yl)amino)-4-(cyclohexyl(isobutyl)amino)phenyl)ethoxy)acetic Acid] | – | – | <5 | 5.01 nM | 10 nM | <5 | – | – | –
COCc1ccc(Nc2cc([C@H](C)CC(=O)O)ccc2N(CC(C)C)C2CCOCC2)cn1 [Example 31, (R)-3-(4-(isobutyl(tetrahydro-2H-pyran-4-yl)amino)-3-((6-(methoxymethyl)pyridin-3-yl)amino)phenyl)butanoic Acid] | – | – | <5 | 10 nM | 20 nM | 5 | – | – | –
CC(C)CN(c1ccc([C@H](C)CC(=O)O)cc1Nc1nc(C(F)(F)F)ns1)[C@H]1CC[C@H](O)CC1 [Example 44, (R)-3-(4-(((1r,4R)-4-hydroxycyclohexyl) (isobutyl)amino)-3-((3-(trifluoromethyl)-1,2,4-thiadiazol-5-yl)amino)phenyl)butanoic Acid] | 1.7 nM | – | <5 | 0.631 nM | – | – | – | – | –
CC(C)CN(CC(C)C)c1ccc(-c2ccccc2C(=O)O)cc1Nc1nc(C2CC2)ns1 [example 288, 4′-[bis(2-methylpropyl)amino]-3′-[(3-cyclopropyl-1,2,4-thiadiazol-5-yl)amino]-[1,1′-biphenyl]-2-carboxylic acid] | – | – | <5 | 100 nM | 316 nM | <5 | – | – | –
CC(C)CN(CC(C)C)c1ccc(-c2ccccc2C(=O)O)cc1Nc1nc2ccccc2[nH]1 [example 297, 3′-[(1H-1,3-benzodiazol-2-yl)amino]-4′-[bis(2-methylpropyl)amino]-[1,1′-biphenyl]-2-carboxylic acid] | – | – | <5 | 20 nM | 50.1 nM | <5 | – | – | –
COc1ncc(Nc2cc([C@H](C)CC(=O)O)ccc2N(CC(C)C)C2CCOCC2)cn1 [Example 15, (R)-3-(4-(isobutyl(tetrahydro-2H-pyran-4-yl)amino)-3-((2-methoxypyrimidin-5-yl)amino)phenyl)butanoic Acid] | – | – | <5 | 3.16 nM | 7.94 nM | <5 | – | – | –
CC(C)CN(c1ccc([C@H](C)CC(=O)O)cc1NC1CCCC(C)(C)C1)C1CCCCC1 (stereo partly drawn) [example 183, (3R)-3-{4-[cyclohexyl(2-methylpropyl)amino]-3-[(3,3-dimethylcyclohexyl)ami-no]phenyl}butanoic acid] | – | – | <5 | 200 nM | 398 nM | <5 | – | – | –
